From patent US8809360B2, “Use of a pyridine compound for the preparation of a medicament for the treatment of skin lesions” (Mitsubishi Tanabe Pharma Corporation, priority 2004, dated 2014)
Several values for one entry are separate records, joined by “and”; a condition that tells them apart may be missing. Equal values may be shown once.

Tested on: Human Dermal Microvascular Endothelial Cell (HDMEC)
Assay: Promoting activity in vitro on human dermal microvascular endothelial cell (HDMEC) proliferation
Format: cell-based
Details: positive control: bFGF solution 0.1 μg/mL medium
Procedure: The wound healing-promoting activity of test compounds were investigated in terms of the promotion activity on HDMEC proliferation in the following manner. As a HDMEC, normal adult dermal microvascular endothelial cells (Hybridoma (1996): Vol. 15 (4), pp 279-288) were used in this study.
A suspension of HDMEC mentioned above (2×10^4 cells/mL; Cryo HMVEC-Ad; trademark registered by Cambrex Inc.) were seeded on 48-well plate (250 μL/well). The cells were cultured in a proliferation medium (BletKit EGM-2-MV; trademark registered by Cambrex Inc.) for one day. After substituting an assay medium (450 μL, bFGF-, EGF- and VEGF-free BletKit EGM-2-MV; trademark registered by Cambrex Inc.) for the proliferation medium, a dimethylsulfoxide solution of the test compound (0.1 v/v %, 50 μL) was added to each well and the cells were cultured for 96 hours. After culturing, the assay medium was removed by aspiration and the residual cells were suspended in Isoton II solution (500 μL; Beckmann-Coulter Ltd.) containing 0.05% trypsin and 0.02% ethylenediaminetetraacetic acid. The suspension was diluted (11-fold) with Isoton II solution (5 mL) and the number of cells were counted by Coulter-Counter Z1 (Beckmann-Coulter Ltd.).
As a negative control group, HDMEC was cultured in the same manner, but in the absence of the test compound, as described above. […]

Substance: Positive control: bFGF solution (0.1 μg/mL medium) used instead of the test compound solution; basic fibroblast growth factor
- Number of cells after 96 hours: 1.31 × 10^4 cells and 1.81 × 10^4 cells and 2.03 × 10^4 cells
- Number of cells after 96 hours (listed as positive control): 1.95 × 10^4 cells
